Experimental data taken from patent US11584765B2 (priority 2017, dated 2023).

System: C57BL/6 mice
Assay: animal or person
Type: in vivo
Conditions: Mus musculus, sc, 0.5 h, s.c. administration, 30 min, 55° C. water, read-out: ED50 (mg/kg) at 30 min on C57BL/6 mice in Warm-water Tail-flick Test

Structure (SMILES) | ED50
CCOCC1(CCc2ccsc2)CCN(Cc2ccc(C)nc2C)C1 (centres unmarked) [Compound 306, 3-((3-(ethoxymethyl)-3-(2-(thiophen-3-yl)ethyl)pyrrolidin-1-yl)methyl)-2,6-dimethylpyridine] | < 10 mg/kg
CCOC[C@@]1(CCc2ccccc2)CCN(Cc2ccc(C)nc2C)C1 [Compound 307, (S)-3-((3-(ethoxymethyl)-3-phenethylpyrrolidin-1-yl)methyl)-2,6-dimethylpyridine] | < 10 mg/kg
CCOCC1(CCc2nc3ccccc3o2)CCN(Cc2cccnc2)C1 (centres unmarked) [Compound 308, 2-(2-(3-(ethoxymethyl)-1-(pyridin-3-ylmethyl)pyrrolidin-3-yl)ethyl)benzo[d]oxazole] | > 10 mg/kg
CCOCC1(CCc2csc3ccccc23)CCN(Cc2cccnc2)C1 (centres unmarked) [Compound 309, 3-((3-(2-(benzo[b]thiophen-3-yl)ethyl)-3-(ethoxy-methyl)pyrrolidin-1-yl)methyl)pyridine] | > 10 mg/kg
Cc1ccc(CN2CCC(CCc3ccccc3)(c3ccccn3)CC2)c(C)n1 [Compound 310, 2,6-dimethyl-3-((4-phenethyl-4-(pyridin-2-yl)piperidin-1-yl)methyl)pyridine] | < 10 mg/kg
CCOCC1(CCc2ccc(F)cc2)CCN(Cc2ccc(C)nc2C)C1 (centres unmarked) [Compound 311, 3-((3-(ethoxymethyl)-3-(4-fluoro-phenethyl)pyrrolidin-1-yl)methyl)-2,6-dimethylpyridine] | < 10 mg/kg
CCOCC1(CCc2cc(C)sc2C)CCN(Cc2cnn(C)c2)C1 (centres unmarked) [Compound 312, 4-((3-(2-(2,5-dimethylthiophen-3-yl)ethyl)-3-(ethoxy-methyl)pyrrolidin-1-yl)methyl)-1-methyl-1H-pyrazole] | < 10 mg/kg
CCOCC1(c2ccccn2)CCN(Cc2ccc(C)nc2C)C1 (centres unmarked) [Compound 313, 3-((3-(ethoxymethyl)-3-(pyridin-2-yl)pyrrolidin-1-yl)methyl)-2,6-dimethylpyridine] | > 10 mg/kg
COCCC1(c2ccccn2)CCN(Cc2ccc(C)nc2C)C1 (centres unmarked) [Compound 314, 3-((3-(2-methoxyethyl)-3-(pyridin-2-yl)pyrrolidin-1-yl)methyl)-2,6-dimethylpyridine] | > 10 mg/kg
CCOCC1(CCc2ccccc2)CCN(Cc2cccn2-c2cccnc2)C1 (centres unmarked) [Compound 315, 3-(2-((3-(ethoxymethyl)-3-phenethylpyrrolidin-1-yl)methyl)-1H-pyrrol-1-yl)pyridine] | > 10 mg/kg
CCOCC1(CCc2ccccc2)CCN(Cc2ccccc2-c2cccs2)C1 (centres unmarked) [Compound 316, 3-(ethoxymethyl)-3-phenethyl-1-(2-(thiophen-2-yl)benzyl)pyrrolidine] | > 10 mg/kg
CCOCC1(CCc2ccccc2)CCN(Cc2ccccc2-c2ccco2)C1 (centres unmarked) [Compound 317] | > 10 mg/kg
CCOC[C@@]1(CCc2ccsc2)CCN(Cc2ccc(C)nc2)C1 [Compound 318, (S)-5-((3-(ethoxymethyl)-3-(2-(thiophen-3-yl)ethyl)pyrrolidin-1-yl)methyl)-2-methylpyridine] | < 10 mg/kg
CCOC[C@@]1(CCc2ccccc2)CCN(Cc2ccc(C)nc2)C1 [Compound 319, (S)-5-((3-(ethoxymethyl)-3-phenethylpyrrolidin-1-yl)methyl)-2-methylpyridine] | < 10 mg/kg
CCOC[C@@]1(CCc2ccc(F)cc2)CCN(Cc2ccc(C)nc2)C1 [Compound 320, (S)-5-((3-(ethoxymethyl)-3-(4-fluoro-phenethyl)pyrrolidin-1-yl)methyl)-2-methylpyridine] | < 10 mg/kg
CCOC[C@@]1(CCc2cc(C)cs2)CCN(Cc2ccc(C)nc2)C1 [Compound 321, (S)-5-((3-(ethoxymethyl)-3-(2-(4-methylthiophen-2-yl)ethyl)pyrrolidin-1-yl)methyl)-2-methylpyridine] | < 10 mg/kg
CCOC[C@@]1(CCc2ccc(F)cc2)CCN(Cc2cccnc2)C1 [Compound 322, (S)-3-((3-(ethoxymethyl)-3-(4-fluorophenethyl)pyrrolidin-1-yl)methyl)pyridine] | < 10 mg/kg
CCOC[C@@]1(CCc2csc(C)c2)CCN(Cc2cccnc2)C1 [Compound 323, (S)-3-((3-(ethoxymethyl)-3-(2-(5-methylthiophen-3-yl)ethyl)pyrrolidin-1-yl)methyl)pyridine] | < 10 mg/kg
CCOC[C@@]1(CCc2ccsc2)CCN(Cc2ccc(NC(C)=O)cc2)C1 [Compound 324, (S)-N-(4-((3-(ethoxymethyl)-3-(2-(thiophen-3-yl)ethyl)pyrrolidin-1-yl)methyl)phenyl)acetamide] | < 10 mg/kg
CCOCC1(CCc2ccccc2)CCN(C(C)c2cccnc2)CC1 (centres unmarked) [Compound 327, 3-(1-(4-(ethoxymethyl)-4-phenethylpiperidin-1-yl)ethyl)pyridine] | < 10 mg/kg
Cc1ccc(C(C)N2CCC(CCc3ccccc3)(c3ccccn3)CC2)c(C)n1 (centres unmarked) [Compound 328, 2,6-dimethyl-3-(1-(4-phenethyl-4-(pyridin-2-yl)piperidin-1-yl)ethyl)pyridine] | < 10 mg/kg
CCOC[C@@]1(CCc2cc(C)cs2)CCN(Cc2ccc(C)nc2C)C1 [Compound 329, (S)-3-((3-(ethoxymethyl)-3-(2-(4-methylthiophen-2-yl)ethyl)pyrrolidin-1-yl)methyl)-2,6-dimethylpyridine] | < 10 mg/kg

Structure (SMILES) | ED50
CCOC[C@@]1(CCc2csc(C)c2)CCN(Cc2ccc(C)nc2C)C1 [Compound 330, (S)-3-((3-(ethoxymethyl)-3-(2-(5-methylthiophen-yl)ethyl)pyrrolidin-1-yl)methyl)-2,6-dimethylpyridine] | < 10 mg/kg
CCOC[C@@]1(CCc2cscc2C)CCN(Cc2ccc(C)nc2C)C1 [Compound 331, (S)-3-((3-(ethoxymethyl)-3-(2-(4-methylthiophen-3-yl)ethyl)pyrrolidin-1-yl)methyl)-2,6-dimethylpyridine] | < 10 mg/kg
CCOCC1(CCc2ccccc2)CCN(C(C)c2cnn(C)c2)C1 (stereo not drawn) [Compound 332, 4-(1-(3-(ethoxymethyl)-3-phenethylpyrrolidin-1-yl)ethyl)-l-methyl-1H-pyrazole] | < 10 mg/kg
CCOC[C@@]1(CCc2cccs2)CCN(Cc2ccc(C)nc2)C1 [Compound 333, (S)-5-((3-(ethoxymethyl)-3-(2-(thiophen-2-yl)ethyl)pyrrolidin-1-yl)methyl)-2-methylpyridine] | < 10 mg/kg
CCOC[C@@]1(CCc2cccs2)CCN(Cc2ccc(C)nc2C)C1 [Compound 334, (S)-3-((3-(ethoxymethyl)-3-(2-(thiophen-2-yl)ethyl)pyrrolidin-1-yl)methyl)-2,6-dimethylpyridine] | < 10 mg/kg
CCOC[C@@]1(CCc2csc(C)c2)CCN(Cc2ccc(C)nc2)C1 [Compound 335, (S)-5-((3-(ethoxymethyl)-3-(2-(5-methylthiophen-3-yl)ethyl)pyrrolidin-1-yl)methyl)-2-methylpyridine] | < 10 mg/kg
CCOC[C@@]1(CCc2ccsc2)CCN(Cc2ccc(C)nc2C)C1 [Compound 336] | < 10 mg/kg
CCOC[C@@]1(CCc2cc(C)cs2)CCN(Cc2cccnc2)C1.Cl [Compound 337] | < 10 mg/kg
CCOCC1(CCc2ccccc2)CCN(CC(O)c2ccc(C)nc2)C1 (centres unmarked) [Compound 338, 2-(3-(ethoxymethyl)-3-phenethylpyrrolidin-1-yl)-1-(6-methylpyridin-3-yl)ethanol] | > 10 mg/kg
Cc1ccc(N(C)N2CCC(CCc3ccccc3)(c3ccccn3)CC2)c(C)n1 [Compound 339, N,2,6-trimethyl-N-(4-phenethyl-4-(pyridin-2-yl)piperidin-1-yl)pyridin-3-amine] | > 10 mg/kg
CCOCC1(CCc2ccccc2)CCN(Cc2csc(C)n2)C1 (centres unmarked) [Compound 340, 4-((3-(ethoxymethyl)-3-phenethylpyrrolidin-1-yl)methyl)-2-methylthiazole] | > 10 mg/kg
CCOCC1(CCc2ccccc2)CCN(C(C)c2csc(C)n2)C1 (centres unmarked) [Compound 341, 4-(1-(3-(ethoxymethyl)-3-phenethylpyrrolidin-1-yl)ethyl)-2-methylthiazole] | < 10 mg/kg
CCOCC1(CCc2ccccc2)CCN(C(CO)c2ccc(C)nc2)C1 (centres unmarked) [Compound 342, 2-(3-(ethoxymethyl)-phenethylpyrrolidin-1-yl)-2-(6-methylpyridin-3-yl)ethanol] | < 10 mg/kg
CCOCC1(CCc2ccccc2)CCN(C(C)(C)c2cccnc2)C1 (centres unmarked) [Compound 343, 3-(2-(3-(ethoxymethyl)-3-phenethylpyrrolidin-1-yl)propan-2-yl)pyridine] | < 10 mg/kg
CCOC[C@@]1(CCc2ccc(F)s2)CCN(Cc2ccc(C)nc2)C1 [Compound 344] | < 10 mg/kg
CCOC[C@@]1(CCc2ccc(F)s2)CCN(Cc2cccnc2)C1 [Compound 345, (S)-3-((3-(ethoxymethyl)-3-(2-(5-fluorothiophen-2-yl)ethyl)pyrrolidin-1-yl)methyl)pyridine] | < 10 mg/kg
CCOCC1(CCc2ccccc2)CCN(C(C)c2cnc(C)s2)C1 (centres unmarked) [Compound 346, 5-(1-(3-(ethoxymethyl)-3-phenethylpyrrolidin-1-yl)ethyl)-2-methylthiazole] | < 10 mg/kg
CCOCC1(CCc2ccccc2)CCN(C(C)C(O)c2ccc(C)nc2)C1 (centres unmarked) [Compound 347, 2-(3-(ethoxymethyl)-3-phenethylpyrrolidin-1-yl)-1-(6-methylpyridin-3-yl)propan-1-ol] | > 10 mg/kg
Cc1ccc(CN2CC[C@](CCc3ccsc3)([C@@H]3CCCO3)C2)cn1 [Compound 348, 2-methyl-5-(((S)-3-((S)-tetrahydrofuran-2-yl)-3-(2-(thiophen-3-yl)ethyl)pyrrolidin-1-yl)methyl)pyridine] | < 10 mg/kg
CCOCC1(CCc2ccccn2)CCN(C(C)c2ccc(C)nc2)C1 (centres unmarked) [Compound 349, 5-(1-(3-(ethoxymethyl)-3-(2-(pyridin-2-yl)ethyl)pyrrolidin-1-yl)ethyl)-2-methylpyridine] | < 10 mg/kg
CCOCC1(CCc2cccnc2)CCN(C(C)c2ccc(C)nc2)C1 (centres unmarked) [Compound 350, 5-(1-(3-(ethoxymethyl)-3-(2-(pyridin-3-yl)ethyl)pyrrolidin-1-yl)ethyl)-2-methylpyridine] | < 10 mg/kg
CCOCC1(CCc2ncccn2)CCN(C(C)c2ccc(C)nc2)C1 (centres unmarked) [Compound 351, 2-(2-(3-(ethoxymethyl)-1-(1-(6-methylpyridin-3-yl)ethyl)pyrrolidin-3-yl)ethyl)pyrimidine] | < 10 mg/kg
